According to patent publication US8252909B2, “Synthetic C-glycolipid and its use for treating cancer, infectious diseases, and autoimmune diseases” (New York University, priority 2002, dated 2012):
Several values for one entry are separate records, joined by “and”; a condition that tells them apart may be missing. Equal values may be shown once.

Key:
[1] = tested on: IFN-γ; assay: serum IFN-γ after treatment, sandwich ELISA; format: in vivo; conditions: wild type BALB/c mice, 1 μg intravenously
Procedure: (§1) The serum concentrations of IFN-γ and IL-4 were measured 2, 6, 12, 24, 48, and 72 hours after treatment with α-GalCer, α-C-GalCer, or nothing by way of a sandwich ELISA (e-bioscience, San Diego). The serum concentrations of IL-12p70 were also measured at 2, 6, 12, 24, 48 and 72 hours after treatment by way of a sandwich ELISA (Pharmingen, San Diego).

[2] = tested on: P. yoelii sporozoites; assay: malaria liver stage development in mice challenged with P. yoelii sporozoites, real-time RT-PCR of 18S rRNA in liver; format: in vivo; conditions: for suppression of P. yoelii liver stages in deficient mice: mice deficient in CD1d, Jα18, IFN-γ or IFN-γ receptor; for suppression of P. yoelii liver stages in deficient mice / malaria liver stage development: 2 μg intraperitoneally two days before challenge; for malaria liver stage development: compared to untreated control; for dose of equal anti-malaria activity (dose response): intraperitoneally three days before challenge
Procedure: (§2) P. yoelii (17NXL strain) was maintained by alternate cyclic passages in Anopheles stephensi mosquitoes and Swiss Webster mice. Sporozoites obtained from dissected salivary glands of infected mosquitoes 2 weeks after their infective blood were used for challenge of the mice. Challenge of mice to determine the development of liver-stage malaria infection was performed by an intravenous injection of 10,000 viable sporozoites into the tail vein. The outcome of the challenge was determined 40-42 hours later by measuring the parasite burden in the livers of the mice using a quantitative real-time RT-PCR method, as taught in Bruna-Romero et al., Int. J. Parasitol. 31, 1449-1502, 2001. Challenge of mice toe determine the development of blood stage malaria infection was performed by an intravenous injection of 75 viable sporozoites into the tail vein. Starting four days after challenge, daily peripheral blood smears were obtained from each mouse and examined microscopically for the presence of blood stage parasites until day 17 post-challenge. Mice were considered positive for parasitemia if at least one blood stage parasite was observed during the time of examination.
The degree of liver stage development in challenged mice was determined by quantifying the amount of P. yoelii-specific 18S rRNA molecules in the livers of the mice by way of the real-time RT-PCR technique of Bruna-Romero et al. A 2 μg sample of total RNA prepared from the livers of challenged mice was reverse-transcribed, and an aliquot of the resulting cDNA (133 ng) was used for real-time PCR amplification of P. yoelii 18S rRNA sequences. This amplification was performed in a GeneAmp® 5700 Sequence Detection System (PE Applied Biosystems, Foster City, Calif.). For this purpose, primers 5′-[…]-3′ (SEQ. ID NO: 1) (54 nM) and 5′-[…]-3′ (SEQ. ID NO: 2) (60 nm) were used, together with the dsDNA-specific dye SYBR Green I incorporated into the PCR reaction buffer (PE Biosystems, Foster City, Calif.) in order to detect the PCR product generated. The temperature profile of the reaction was 95° C. for 10 minutes followed by 35 cycles of denaturation of 95° C. for 15 seconds and annealing/extension at 60° C. for 1 minute.

[3] = tested on: B16 melanoma cells; assay: melanoma lung metastases, count of metastatic nodules; format: in vivo, C57/BL6 mice; conditions: for dose of equal anti-cancer response (lung metastatic nodules): C57BL/6 mice, intravenously two days before challenge with 5×10^4 B16 cells, lungs checked two weeks later
Procedure: The development of melanoma lung metastases in C57/BL6 mice was determined by first challenging mice intravenously with 5×10^4 syngeneic B16 melanoma cells suspended in DMEM supplemented with 10% FCS. Two weeks after challenge the mice were sacrificed, the lungs removed, and the number of metastatic nodules counted, as described in Fujii et al., Natl. Immunol. 3, 867-874 (2002).

[4] = tested on: IL-4; assay: serum IL-4 after treatment, sandwich ELISA; format: in vivo; conditions: wild type BALB/c mice, 1 μg intravenously
Procedure: as §1

[5] = tested on: P. yoelii sporozoites; assay: sporozoite-induced blood stage malaria infection, daily blood smears; format: in vivo; conditions: wild type BALB/c mice, 100 ng intraperitoneally three days before challenge
Procedure: as §2

[6] = tested on: IL-12p70; assay: serum IL-12 after treatment, sandwich ELISA; format: in vivo; conditions: wild type BALB/c mice, 1 μg intravenously
Procedure: as §1

[7] = tested on: P. yoelii sporozoites; conditions: mice, administered two days before challenge with Plasmodium sporozoites (Gonzalez-Aseguinolaza 2000); cited from earlier work
[8] = tested on: liver enzyme activities; conditions: mice, immediately after treatment (Osman et al., 2000); cited from earlier work
[9] = recent human trials (Shimosaka et al.); cited from earlier work
[10] = independently of dosage (Nakagawa et al., 1998); cited from earlier work
[11] = 100 ng intraperitoneally four days before challenge

| SMILES | time at which detectable serum IFN-γ levels start [1] [h] | anti-malaria activity in IL-12 deficient mice [2, 11] | suppression of P. yoelii liver stages in deficient mice [2] | malaria liver stage development ([2]; wild type BALB/c mice) | dose of equal anti-malaria activity (dose response) ([2]; wild type BALB/c mice) [ng] | dose of equal anti-cancer response (lung metastatic nodules) [3] [ng] | time of peak serum IL-4 concentration after treatment [4] [h] | mice completely protected from blood stage malaria [5] | time of peak serum IL-12 concentration after treatment [6] [h] | serum IL-12 levels 12 hours after treatment [6] | other results |
| --- | --- | --- | --- | --- | --- | --- | --- | --- | --- | --- | --- |
| CCCCCCCCCCCCCCCCCCCCCCCCCC(=O)N[C@@H](CC[C@H]1O[C@H](CO)[C@H](O)[C@H](O)[C@H]1O)[C@H](O)[C@H](O)CCCCCCCCCCCCCC [α-C-GalCer, 3′S,4′S,5′R-3′-N-hexacosanoyl-4′,5′-dihydroxynonadecyl-α-C-D-galactopyranoside] | 6 | no difference in anti-malaria activity | unable to suppress | virtually no liver stage development | 1 | 1 | 2 | 9 of 10 | 6 | detectable | potency against malaria relative to α-GalCer ([2]; malaria disease model, mice): 1000 fold; extension of anti-malaria effect (kinetic effect) ([2]; wild type BALB/c mice, 100 ng intraperitoneally at various times before challenge): up to three days longer than α-GalCer; suppression of liver stage development, wild type mice ([2]; wild type mice, 100 ng intraperitoneally four days before challenge): suppressed liver stage development to a much greater degree than α-GalCer; potency against melanoma metastases relative to α-GalCer ([3]; melanoma metastases model, mice): 100 fold; peak serum IL-12 concentration relative to α-GalCer ([6]; 6 hours): 2 times |
| CCCCCCCCCCCCCCCCCCCCCCCCCC(=O)N[C@@H](CO[C@H]1O[C@H](CO)[C@H](O)[C@H](O)[C@H]1O)[C@H](O)[C@H](O)CCCCCCCCCCCCCC [α-GalCer, (2S,3S,4R)-1-O-(α-D-galactopyranosyl)-2-(N-hexacosanoylamino)-1,3,4-octadecanetriol] | 6 | no difference in anti-malaria activity | unable to suppress | virtually no liver stage development | 1000 | 100 | 2 | 0 of 10 | 6 | undetectable | development of malaria liver stages [7]: suppressed development of malaria liver stages; time of peak serum IFN-γ post-treatment [1]: 12 h and 24 h; liver enzyme activities after treatment [8]: transient elevation of liver enzyme activities; cytotoxicity in humans [9]: not cytotoxic; peak serum IL-4 concentration relative to α-C-GalCer ([4]; 2 hours): roughly 3 times; toxicity in rodents and monkeys [10]: does not induce toxicity |
